Test results reported in article PMC10418599, “Quercetins, Chlorogenic Acids and Their Colon Metabolites Inhibit Colon Cancer Cell Proliferation at Physiologically Relevant Concentrations” (International Journal of Molecular Sciences, 2023).

Columns and labels:
SW480 cell line [1] = test: Cell metabolism of phenolic compounds (UHPLC-HR-MS analysis of cell media); format: in vitro ADME, Human
Procedure: To analyze the metabolism of phenolic compounds by Caco-2 and SW480 cells, the cell culture media were withdrawn after 0, 24, 48 and 72 h of incubation. Phenolic compounds were extracted from the culture media by following the procedure reported in Sala et al.. Briefly, 100 μL of cold methanol was mixed with 100 μL of cell media and vortexed for 1 min. The mixture was then centrifuged at 10,000× g (4 °C, 5 min) and the supernatant was injected, after appropriate dilution, in an ultra-high-performance liquid chromatography high-resolution mass spectrometry system (UHPLC-HR-MS).
The HR-MS system consisted of a UHPLC Ultimate 3000 separation module, equipped with a C18 column (Acquity UPLC HSS C18 reversed phase, 2.1 × 100 mm, 1.8 μm particle size, Waters, Milan, Italy) and coupled with a Q Exactive Hybrid Quadrupole-Orbitrap Mass Spectrometer (Thermo Scientific, San Jose, CA, USA). Mobile phases consisted of a mixture of water containing formic acid (0.1%) (mobile phase A) and acetonitrile containing formic acid (0.1%) (mobile phase B). The gradient began at 1% B, reaching 40% B over 20 min. To wash the column, the mobile phase B concentration was raised to 99% over 6 min and kept at 99% for 3 min before returning to the initial conditions. The MS and MS/MS conditions are fully described in Martini et al..
Quantification was carried out by building external calibration curves with the available standard compounds.

SW480 cell line [2] = test: Anti-proliferative assay (MTS cell proliferation assay); format: cell-based, Human; conditions: maximum tested concentration 200 μmol/L
Procedure: Human colon cancer Caco-2 and SW480 cell lines were cultured and grown as previously reported. […] Incubation was carried out for 24, 48 and 72 h. Data were compared with a control solution containing 0.5% DMSO in cell medium and representing 100% proliferation. In addition, six different mixes were prepared to simulate the simultaneous presence of parent phenolic compounds and metabolites by mimicking the possible human inter-individual variability in colon metabolism of phenolic compounds. Two sets of mixes were prepared to consider the colon metabolism of quercetins and chlorogenic acids. […] For each set of mixtures (QUE and CGA mixtures), three different mixes were formulated. One set of mixes mimicked the low-producers metabotype and contained 90% parent compounds and 10% metabolites (mixes QUE-LP and CGA-LP). Another set of mixes was prepared to simulate the high-producers metabotype and contained 10% parent compounds and 90% metabolites (mixes QUE-HP and CGA-HP). Finally, a third set of mixes was prepared with equimolar amounts of all the compounds (mixes QUE-EQ and CGA-EQ). […] Cell proliferation was assessed by the MTS assay as previously described. […] The IC50 values were calculated through non-linear regression analysis by plotting the base-10 logarithm of the phenolic compound concentration vs. the percentage of inhibition.

[3] = SW480, 24 h, substrate 3,5-di-O-Caffeoylquinic acid 50 μmol/L
[4] = SW480, 48 h, substrate 3,5-di-O-Caffeoylquinic acid 50 μmol/L
[5] = SW480, 72 h, substrate 3,5-di-O-Caffeoylquinic acid 50 μmol/L
[6] = SW480, 24 h, substrate 3-O-Caffeoylquinic acid trans 50 μmol/L
[7] = SW480, 24 h, substrate 5-O-Caffeoylquinic acid trans 50 μmol/L
[8] = SW480, 48 h, substrate 5-O-Caffeoylquinic acid trans 50 μmol/L
[9] = SW480, 72 h, substrate 3-O-Caffeoylquinic acid trans 50 μmol/L
[10] = SW480, 72 h, substrate 5-O-Caffeoylquinic acid trans 50 μmol/L
[11] = SW480, 48 h, substrate 3-O-Caffeoylquinic acid trans 50 μmol/L
[12] = SW480, 24 h, substrate Quercetin 50 μmol/L
[13] = SW480, 48 h, substrate Quercetin 50 μmol/L
[14] = SW480, 48 h, substrate Quercetin-3-O-glucoside-4′-O-glucoside 50 μmol/L
[15] = SW480, 48 h, substrate Quercetin-4′-O-glucoside 50 μmol/L
[16] = SW480, 72 h, substrate Quercetin 50 μmol/L
[17] = SW480, 72 h, substrate Quercetin-3-O-glucoside-4′-O-glucoside 50 μmol/L
[18] = SW480, 72 h, substrate Quercetin-4′-O-glucoside 50 μmol/L

SMILES	Concentration of newly formed metabolite (SW480 cell line [1]; [3]) [µmol/L]	Concentration of newly formed metabolite (SW480 cell line [1]; [4]) [µmol/L]	Concentration of newly formed metabolite (SW480 cell line [1]; [5]) [µmol/L]	Concentration of newly formed metabolite (SW480 cell line [1]; [6]) [µmol/L]	Concentration of newly formed metabolite (SW480 cell line [1]; [7]) [µmol/L]	Concentration of newly formed metabolite (SW480 cell line [1]; [8]) [µmol/L]	Concentration of newly formed metabolite (SW480 cell line [1]; [9]) [µmol/L]	Concentration of newly formed metabolite (SW480 cell line [1]; [10]) [µmol/L]	Concentration of newly formed metabolite (SW480 cell line [1]; [11]) [µmol/L]	further results
O=C(/C=C/c1ccc(O)c(O)c1)OC1CC(OC(=O)/C=C/c2ccc(O)c(O)c2)(C(=O)O)CC(O)C1O (centres unmarked) [1,3-di-O-Caffeoylquinic acid]	8.97 ± 0.04	8.87 ± 0.05	10.98 ± 0.02	–	–	–	–	–	–	–
O=C(/C=C/c1ccc(O)c(O)c1)OC1C(O)CC(OC(=O)/C=C/c2ccc(O)c(O)c2)(C(=O)O)CC1O (centres unmarked) [1,4-di-O-Caffeoylquinic acid]	0.91 ± 0.03	0.66 ± 0.03	0.55 ± 0.01	–	–	–	–	–	–	–
O=C(/C=C/c1ccc(O)c(O)c1)OC1CC(O)(C(=O)O)CC(O)C1OC(=O)/C=C/c1ccc(O)c(O)c1 (centres unmarked) [3,4-di-O-Caffeoylquinic acid]	10.12 ± 0.10	8.04 ± 0.14	9.05 ± 0.15	–	–	–	–	–	–	–
O=C(/C=C/c1ccc(O)c(O)c1)O[C@@H]1C[C@](O)(C(=O)O)C[C@@H](O)[C@H]1O [3-O-Caffeoylquinic acid cis, 3-O-Caffeoylquinic acid]	–	–	–	4.72 ± 0.04	0.41 ± 0.05	0.36 ± 0.04	3.27 ± 0.17	0.72 ± 0.03	–	–
COc1cc(/C=C/C(=O)OC2CC(O)(C(=O)O)CC(O)C2O)ccc1O (centres unmarked) [3-O-Feruloylquinic acid]	–	–	–	0.08 ± 0.00	0.06 ± 0.00	0.07 ± 0.00	0.17 ± 0.00	0.05 ± 0.00	0.12 ± 0.00	–
O=C(/C=C/c1ccc(O)c(O)c1)O[C@@H]1[C@H](O)C[C@@](O)(C(=O)O)C[C@H]1OC(=O)/C=C/c1ccc(O)c(O)c1 [4,5-di-O-Caffeoylquinic acid]	3.30 ± 0.05	2.20 ± 0.02	1.71 ± 0.03	–	–	–	–	–	–	–
O=C(/C=C/c1ccc(O)c(O)c1)OC1[C@H](O)CC(O)(C(=O)O)C[C@H]1O (stereo partly drawn) [4-O-Caffeoylquinic acid trans, 4-O-Caffeoylquinic acid]	0.07 ± 0.01	0.12 ± 0.01	0.25 ± 0.01	6.89 ± 0.06	12.69 ± 0.12	14.80 ± 0.09	12.02 ± 0.24	11.93 ± 0.03	8.07 ± 0.24	–
COc1cc(/C=C/C(=O)OC2C(O)CC(O)(C(=O)O)CC2O)ccc1O (centres unmarked) [4-O-Feruloylquinic acid]	–	–	–	0.02 ± 0.00	0.04 ± 0.00	0.05 ± 0.00	0.07 ± 0.00	0.04 ± 0.00	0.04 ± 0.00	–
COc1ccc(-c2oc3cc(O)cc(O)c3c(=O)c2O)cc1O [4′-O-methylquercetin]	–	–	–	–	–	–	–	–	–	Concentration of newly formed metabolite (SW480 cell line [1]; [12]): 0.97 ± 0.04 µmol/L; Concentration of newly formed metabolite (SW480 cell line [1]; [13]): 1.65 ± 0.04 µmol/L; Concentration of newly formed metabolite (SW480 cell line [1]; [14]): 0.01 ± 0.00 µmol/L; Concentration of newly formed metabolite (SW480 cell line [1]; [15]): 0.49 ± 0.01 µmol/L; Concentration of newly formed metabolite (SW480 cell line [1]; [16]): 1.83 ± 0.25 µmol/L; Concentration of newly formed metabolite (SW480 cell line [1]; [17]): 0.01 ± 0.00 µmol/L; Concentration of newly formed metabolite (SW480 cell line [1]; [18]): 0.71 ± 0.04 µmol/L
O=C(/C=C/c1ccc(O)c(O)c1)O[C@@H]1C[C@](O)(C(=O)O)C[C@@H](O)[C@H]1O [5-O-Caffeoylquinic acid cis, 5-O-Caffeoylquinic acid]	–	–	–	–	–	0.97 ± 0.05	–	1.42 ± 0.01	–	–
COc1cc(/C=C/C(=O)O[C@@H]2C[C@@](O)(C(=O)O)C[C@@H](O)[C@@H]2O)ccc1O [5-O-Feruloylquinic acid]	–	–	–	0.03 ± 0.00	0.01 ± 0.00	0.03 ± 0.00	0.05 ± 0.00	0.03 ± 0.00	0.03 ± 0.00	–
O=C(O)/C=C/c1ccc(O)c(O)c1 [Caffeic acid]	–	–	1.07 ± 0.01	0.44 ± 0.01	–	0.08 ± 0.00	0.57 ± 0.01	0.09 ± 0.01	0.43 ± 0.01	–
COc1cc(/C=C/C(=O)O)ccc1O [Ferulic acid]	–	–	–	–	0.06 ± 0.02	0.33 ± 0.01	–	0.37 ± 0.01	–	–
COc1cc(-c2oc3cc(O)cc(O)c3c(=O)c2O)ccc1O [Isorhamnetin]	–	–	–	–	–	–	–	–	–	Concentration of newly formed metabolite (SW480 cell line [1]; [12]): 1.61 ± 0.01 µmol/L; Concentration of newly formed metabolite (SW480 cell line [1]; [13]): 3.46 ± 0.08 µmol/L; Concentration of newly formed metabolite (SW480 cell line [1]; [14]): 0.01 ± 0.00 µmol/L; Concentration of newly formed metabolite (SW480 cell line [1]; [15]): 0.79 ± 0.03 µmol/L; Concentration of newly formed metabolite (SW480 cell line [1]; [16]): 3.76 ± 0.11 µmol/L; Concentration of newly formed metabolite (SW480 cell line [1]; [17]): 0.01 ± 0.00 µmol/L; Concentration of newly formed metabolite (SW480 cell line [1]; [18]): 1.03 ± 0.04 µmol/L
O=c1c(O[C@@H]2O[C@H](CO)[C@@H](O)[C@H](O)[C@H]2O)c(-c2ccc(O[C@@H]3O[C@H](CO)[C@@H](O)[C@H](O)[C@H]3O)c(O)c2)oc2cc(O)cc(O)c12 [Quercetin-3-O-glucoside-4′-O-glucoside, quercetin-3-O-glucoside-4′-O-glucoside]	–	–	–	–	–	–	–	–	–	IC50 (SW480 cell line [2]; SW480, 48 h of incubation): > 200 µM; IC50 (SW480 cell line [2]; SW480, 72 h of incubation): ~200 µM
O=c1c(O[C@@H]2O[C@H](CO)[C@@H](O)[C@H](O)[C@H]2O)c(-c2ccc(O)c(O)c2)oc2cc(O)cc(O)c12 [Quercetin-3-O-glucoside]	–	–	–	–	–	–	–	–	–	Concentration of newly formed metabolite (SW480 cell line [1]; SW480, 24 h, substrate Quercetin-3-O-glucoside-4′-O-glucoside 50 μmol/L): 3.35 ± 0.01 µmol/L; Concentration of newly formed metabolite (SW480 cell line [1]; [14]): 8.94 ± 0.03 µmol/L; Concentration of newly formed metabolite (SW480 cell line [1]; [17]): 9.34 ± 0.05 µmol/L
